Data published in ChEMBL document CHEMBL5463725, “Data for DCP probe BAY-277” (2023).
pKi: −log10 of the molar value. The source made the active and inactive calls. The calls are words filed in the database; no cut-off is given here.

Experiments:
[1] = molecular target: 5-hydroxytryptamine receptor 2B (Homo sapiens) (UniProt P41595); conditions: Compound concentration 10.0 uM
[2] = molecular target: T1, D(3) dopamine receptor (Homo sapiens, UniProt P35462); assay: GPCRScan assay: inhibition of D3; set-up: radioligand conc. used [nm] 0.5 – 1.8, parental cells HEKT
[3] = molecular target: Mu-type opioid receptor (Homo sapiens) (UniProt P35372); conditions: Compound concentration 10.0 uM
[4] = molecular target: RAC-beta serine/threonine-protein kinase (Homo sapiens) (UniProt P31751); assay: Inhibition of PKBbeta(h) at 10.0 µM in the Eurofins Kinase panel; conditions: Compound concentration 10.0 uM
[5] = molecular target: Thromboxane-A synthase (Homo sapiens) (UniProt P24557); assay: Inhibition of Thromboxane Synthase at 10.0 µM in the Eurofins Panlabs Safety Screen; conditions: Compound concentration 10.0 uM
[6] = molecular target: Glucocorticoid receptor (Homo sapiens) (UniProt P04150); assay: Inhibition of Glucocorticoid at 10.0 µM in the Eurofins Panlabs Safety Screen; conditions: Compound concentration 10.0 uM
[7] = molecular target: Prostaglandin G/H synthase 1 (Homo sapiens) (UniProt P23219); assay: Inhibition of Cyclooxygenase COX-1 at 10.0 µM in the Eurofins Panlabs Safety Screen; conditions: Compound concentration 10.0 uM
[8] = molecular target: Serine/threonine-protein kinase DCLK3 (Homo sapiens) (UniProt Q9C098); assay: Inhibition of DCAMKL3(h) at 10.0 µM in the Eurofins Kinase panel; conditions: Compound concentration 10.0 uM
[9] = molecular target: MAP kinase-activated protein kinase 2 (Homo sapiens) (UniProt P49137); assay: Inhibition of MAPKAP-K2(h) at 10.0 µM in the Eurofins Kinase panel; conditions: Compound concentration 10.0 uM
[10] = molecular target: Mitogen-activated protein kinase kinase kinase 21 (Homo sapiens) (UniProt Q5TCX8); assay: Inhibition of MLK4(h) at 10.0 µM in the Eurofins Kinase panel; conditions: Compound concentration 10.0 uM
[11] = molecular target: Serine/threonine-protein kinase 38-like (Homo sapiens) (UniProt Q9Y2H1); assay: Inhibition of NDR2(h) at 10.0 µM in the Eurofins Kinase panel; conditions: Compound concentration 10.0 uM
[12] = molecular target: T2, Alpha-2A adrenergic receptor (Homo sapiens) (UniProt P08913); assay: Inhibition of Adrenergic alpha2A at 10.0 µM in the Eurofins Panlabs Safety Screen; conditions: Compound concentration 10.0 uM
T2 sequence (whole entry): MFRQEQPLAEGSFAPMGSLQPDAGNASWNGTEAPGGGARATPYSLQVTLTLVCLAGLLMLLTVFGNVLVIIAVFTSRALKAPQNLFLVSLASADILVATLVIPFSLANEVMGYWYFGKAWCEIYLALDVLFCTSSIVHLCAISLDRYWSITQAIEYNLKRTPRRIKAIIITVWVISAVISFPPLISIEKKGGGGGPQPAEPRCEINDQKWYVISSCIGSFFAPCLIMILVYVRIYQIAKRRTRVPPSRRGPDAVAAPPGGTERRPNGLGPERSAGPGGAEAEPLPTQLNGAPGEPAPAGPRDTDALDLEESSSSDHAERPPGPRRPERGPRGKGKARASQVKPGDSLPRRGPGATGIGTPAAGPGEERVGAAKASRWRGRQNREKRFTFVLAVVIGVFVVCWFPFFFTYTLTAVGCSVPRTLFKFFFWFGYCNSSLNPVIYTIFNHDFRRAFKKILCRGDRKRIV

[13] = molecular target: Histamine H3 receptor (Homo sapiens, UniProt Q9Y5N1); conditions: Compound concentration 10.0 uM
[14] = molecular target: T3, Alpha-2C adrenergic receptor (Homo sapiens) (UniProt P18825); assay: Inhibition of Adrenergic alpha2C at 10.0 µM in the Eurofins Panlabs Safety Screen; conditions: Compound concentration 10.0 uM
T3 sequence (whole entry): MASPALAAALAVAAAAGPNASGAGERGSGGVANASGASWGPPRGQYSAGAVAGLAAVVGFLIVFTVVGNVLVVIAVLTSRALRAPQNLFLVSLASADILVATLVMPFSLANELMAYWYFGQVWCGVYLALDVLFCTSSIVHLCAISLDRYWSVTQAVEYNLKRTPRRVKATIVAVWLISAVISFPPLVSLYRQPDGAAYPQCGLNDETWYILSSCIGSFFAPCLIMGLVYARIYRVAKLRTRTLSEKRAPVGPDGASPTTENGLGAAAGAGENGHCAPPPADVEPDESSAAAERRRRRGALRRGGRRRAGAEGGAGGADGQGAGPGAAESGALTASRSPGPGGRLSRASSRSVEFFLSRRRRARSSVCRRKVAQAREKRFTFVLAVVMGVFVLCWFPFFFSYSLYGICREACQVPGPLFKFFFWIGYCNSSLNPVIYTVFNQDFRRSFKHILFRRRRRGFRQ

[15] = molecular target: Glutamate NMDA receptor (Rattus norvegicus) (UniProt P35439+Q00959+Q00960+Q00961+Q62645+Q8VHN2+Q9R1M7); assay: Inhibition of Glutamate, NMDA, Glycine at 10.0 µM in the Eurofins Panlabs Safety Screen; assay type: protein-complex assay; conditions: Compound concentration 10.0 uM
[16] = molecular target: T1, D(3) dopamine receptor; assay: Inhibition of Dopamine D3 at 10.0 µM in the Eurofins Panlabs Safety Screen; conditions: Compound concentration 10.0 uM
[17] = molecular target: Tyrosine-protein kinase Lck (Homo sapiens) (UniProt P06239); assay: Inhibition of Lck(h) activated at 10.0 µM in the Eurofins Kinase panel; conditions: Compound concentration 10.0 uM
[18] = molecular target: Alpha-1A adrenergic receptor (Rattus norvegicus) (UniProt P43140); assay: Inhibition of Adrenergic alpha1A at 10.0 µM in the Eurofins Panlabs Safety Screen; conditions: Compound concentration 10.0 uM
[19] = molecular target: SNF-related serine/threonine-protein kinase (Homo sapiens) (UniProt Q9NRH2); assay: Inhibition of SNRK(h) at 10.0 µM in the Eurofins Kinase panel; conditions: Compound concentration 10.0 uM
[20] = molecular target: 5-hydroxytryptamine receptor 3A (Homo sapiens) (UniProt P46098); conditions: Compound concentration 10.0 uM
[21] = molecular target: Serine/threonine-protein kinase pim-2 (Homo sapiens) (UniProt Q9P1W9); assay: Inhibition of Pim-2(h) at 10.0 µM in the Eurofins Kinase panel; conditions: Compound concentration 10.0 uM
[22] = molecular target: Dual specificity protein kinase CLK4 (Homo sapiens) (UniProt Q9HAZ1); assay: Inhibition of CLK4(h) at 10.0 µM in the Eurofins Kinase panel; conditions: Compound concentration 10.0 uM
[23] = molecular target: Adenosine receptor A2a (Homo sapiens) (UniProt P29274); assay: Inhibition of Adenosine A2A at 10.0 µM in the Eurofins Panlabs Safety Screen; conditions: Compound concentration 10.0 uM
[24] = molecular target: Sodium-dependent serotonin transporter (Homo sapiens) (UniProt P31645); conditions: Compound concentration 10.0 uM
[25] = molecular target: Methionine aminopeptidase 2 (Homo sapiens, UniProt P50579); assay: Degradation in HUVEC cells (WB) Dmax (Western Blot (WB)); assay type: functional, cell-based
[26] = molecular target: Serine/threonine-protein kinase tousled-like 1 (Homo sapiens) (UniProt Q9UKI8); assay: Inhibition of TLK1(h) at 10.0 µM in the Eurofins Kinase panel; conditions: Compound concentration 10.0 uM
[27] = molecular target: Muscarinic acetylcholine receptor M5 (Homo sapiens, UniProt P08912); assay: GPCRScan assay: inhibition of M5; set-up: radioligand conc. used [nm] 0.2 – 1.0, parental cells stable CHO
[28] = molecular target: Ribosomal protein S6 kinase alpha-5 (Homo sapiens) (UniProt O75582); assay: Inhibition of MSK1(h) at 10.0 µM in the Eurofins Kinase panel; conditions: Compound concentration 10.0 uM
[29] = molecular target: Methionine aminopeptidase 2 (Mus musculus, UniProt O08663); assay: METAP2 biochemical assay (mouse)

T1 sequence (P35462 whole entry): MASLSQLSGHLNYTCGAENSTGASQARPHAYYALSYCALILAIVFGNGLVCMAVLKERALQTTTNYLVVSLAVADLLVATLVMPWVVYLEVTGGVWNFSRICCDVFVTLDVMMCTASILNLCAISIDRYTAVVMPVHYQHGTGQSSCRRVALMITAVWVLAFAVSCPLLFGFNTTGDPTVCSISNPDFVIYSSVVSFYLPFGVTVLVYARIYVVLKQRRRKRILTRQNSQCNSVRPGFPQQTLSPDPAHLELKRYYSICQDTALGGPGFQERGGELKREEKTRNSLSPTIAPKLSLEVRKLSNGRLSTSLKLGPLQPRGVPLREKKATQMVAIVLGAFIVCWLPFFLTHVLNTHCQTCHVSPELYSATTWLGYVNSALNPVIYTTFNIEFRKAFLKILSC
5-hydroxytryptamine receptor 2B (Homo sapiens), sequence (P41595 whole entry): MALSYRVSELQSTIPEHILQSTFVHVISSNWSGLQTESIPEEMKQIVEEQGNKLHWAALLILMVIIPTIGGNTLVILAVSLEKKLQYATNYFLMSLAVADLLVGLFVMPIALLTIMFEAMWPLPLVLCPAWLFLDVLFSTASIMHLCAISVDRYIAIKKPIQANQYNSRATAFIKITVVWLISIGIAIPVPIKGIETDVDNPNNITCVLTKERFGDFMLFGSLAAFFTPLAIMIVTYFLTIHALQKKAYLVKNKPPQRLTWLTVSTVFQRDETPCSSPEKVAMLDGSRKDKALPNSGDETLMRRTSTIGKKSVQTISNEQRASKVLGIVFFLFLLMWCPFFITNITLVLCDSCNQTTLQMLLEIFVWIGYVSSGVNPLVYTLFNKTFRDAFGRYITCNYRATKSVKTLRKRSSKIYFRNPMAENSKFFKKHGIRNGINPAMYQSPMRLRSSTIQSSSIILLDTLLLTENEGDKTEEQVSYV
5-hydroxytryptamine receptor 3A (Homo sapiens), sequence (P46098 whole entry): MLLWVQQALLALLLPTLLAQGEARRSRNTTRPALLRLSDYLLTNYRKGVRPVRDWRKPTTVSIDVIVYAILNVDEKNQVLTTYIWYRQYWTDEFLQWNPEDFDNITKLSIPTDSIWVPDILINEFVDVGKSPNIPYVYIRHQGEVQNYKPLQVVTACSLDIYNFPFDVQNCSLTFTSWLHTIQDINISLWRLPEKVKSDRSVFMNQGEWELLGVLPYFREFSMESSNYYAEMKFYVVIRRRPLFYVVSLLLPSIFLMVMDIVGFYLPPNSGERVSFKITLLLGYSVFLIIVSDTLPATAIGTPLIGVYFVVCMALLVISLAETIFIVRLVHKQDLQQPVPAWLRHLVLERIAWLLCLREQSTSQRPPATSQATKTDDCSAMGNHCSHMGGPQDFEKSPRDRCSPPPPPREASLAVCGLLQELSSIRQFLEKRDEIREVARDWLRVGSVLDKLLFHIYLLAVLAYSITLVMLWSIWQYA
Muscarinic acetylcholine receptor M5, sequence (P08912 whole entry): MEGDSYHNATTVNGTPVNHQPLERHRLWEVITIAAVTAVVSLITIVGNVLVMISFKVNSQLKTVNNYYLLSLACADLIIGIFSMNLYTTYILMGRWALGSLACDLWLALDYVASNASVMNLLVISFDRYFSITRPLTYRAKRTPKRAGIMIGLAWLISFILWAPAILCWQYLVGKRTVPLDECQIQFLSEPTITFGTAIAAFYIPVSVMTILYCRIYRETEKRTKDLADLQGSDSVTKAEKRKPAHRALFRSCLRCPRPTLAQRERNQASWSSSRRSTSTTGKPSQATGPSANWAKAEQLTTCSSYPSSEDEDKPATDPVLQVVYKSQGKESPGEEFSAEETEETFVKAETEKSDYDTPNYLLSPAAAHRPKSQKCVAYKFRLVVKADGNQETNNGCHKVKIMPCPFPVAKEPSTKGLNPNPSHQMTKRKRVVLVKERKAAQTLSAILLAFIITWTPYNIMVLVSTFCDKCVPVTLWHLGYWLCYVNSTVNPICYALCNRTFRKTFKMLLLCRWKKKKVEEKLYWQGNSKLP
Mu-type opioid receptor (Homo sapiens), sequence (P35372 whole entry): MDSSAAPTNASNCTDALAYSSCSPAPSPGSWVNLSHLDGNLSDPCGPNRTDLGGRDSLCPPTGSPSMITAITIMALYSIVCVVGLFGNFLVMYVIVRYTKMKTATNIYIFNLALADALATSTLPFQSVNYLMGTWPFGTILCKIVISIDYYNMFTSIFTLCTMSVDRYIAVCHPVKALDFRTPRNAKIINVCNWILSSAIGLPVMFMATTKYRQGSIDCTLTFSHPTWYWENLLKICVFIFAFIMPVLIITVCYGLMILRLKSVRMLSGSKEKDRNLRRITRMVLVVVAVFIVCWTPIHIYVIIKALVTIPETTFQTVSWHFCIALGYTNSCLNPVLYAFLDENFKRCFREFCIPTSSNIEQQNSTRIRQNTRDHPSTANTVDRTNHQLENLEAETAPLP
Histamine H3 receptor, sequence (Q9Y5N1 whole entry): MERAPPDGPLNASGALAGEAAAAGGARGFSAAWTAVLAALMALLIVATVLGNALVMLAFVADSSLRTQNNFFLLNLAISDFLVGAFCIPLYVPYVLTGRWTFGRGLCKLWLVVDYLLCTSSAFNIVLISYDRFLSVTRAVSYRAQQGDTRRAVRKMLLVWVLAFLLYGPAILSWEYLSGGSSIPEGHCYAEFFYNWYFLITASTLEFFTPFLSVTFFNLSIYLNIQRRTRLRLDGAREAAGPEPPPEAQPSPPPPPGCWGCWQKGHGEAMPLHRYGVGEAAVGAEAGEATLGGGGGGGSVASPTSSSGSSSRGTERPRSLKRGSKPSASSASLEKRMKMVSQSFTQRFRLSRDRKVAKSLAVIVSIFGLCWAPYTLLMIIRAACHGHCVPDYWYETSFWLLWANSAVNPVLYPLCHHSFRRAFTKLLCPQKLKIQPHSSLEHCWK
Sodium-dependent serotonin transporter (Homo sapiens), sequence (P31645 whole entry, looked up): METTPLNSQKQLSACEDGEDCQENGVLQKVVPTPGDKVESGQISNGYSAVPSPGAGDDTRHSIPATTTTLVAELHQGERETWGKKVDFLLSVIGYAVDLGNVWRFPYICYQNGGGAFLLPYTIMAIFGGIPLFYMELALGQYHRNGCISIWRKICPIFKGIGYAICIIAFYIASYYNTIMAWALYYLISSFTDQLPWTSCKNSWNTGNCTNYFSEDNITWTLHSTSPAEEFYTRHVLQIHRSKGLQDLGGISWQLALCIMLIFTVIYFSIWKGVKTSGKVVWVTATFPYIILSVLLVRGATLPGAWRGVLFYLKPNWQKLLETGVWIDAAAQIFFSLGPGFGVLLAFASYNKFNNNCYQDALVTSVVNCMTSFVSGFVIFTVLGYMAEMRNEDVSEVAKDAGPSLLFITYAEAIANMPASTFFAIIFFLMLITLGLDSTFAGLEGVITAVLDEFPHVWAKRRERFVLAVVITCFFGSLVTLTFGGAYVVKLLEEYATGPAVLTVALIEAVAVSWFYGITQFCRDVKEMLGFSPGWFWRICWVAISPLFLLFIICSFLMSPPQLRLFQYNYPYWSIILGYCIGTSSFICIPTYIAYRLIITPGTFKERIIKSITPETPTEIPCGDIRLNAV
Serine/threonine-protein kinase pim-2 (Homo sapiens), sequence (Q9P1W9 whole entry, looked up): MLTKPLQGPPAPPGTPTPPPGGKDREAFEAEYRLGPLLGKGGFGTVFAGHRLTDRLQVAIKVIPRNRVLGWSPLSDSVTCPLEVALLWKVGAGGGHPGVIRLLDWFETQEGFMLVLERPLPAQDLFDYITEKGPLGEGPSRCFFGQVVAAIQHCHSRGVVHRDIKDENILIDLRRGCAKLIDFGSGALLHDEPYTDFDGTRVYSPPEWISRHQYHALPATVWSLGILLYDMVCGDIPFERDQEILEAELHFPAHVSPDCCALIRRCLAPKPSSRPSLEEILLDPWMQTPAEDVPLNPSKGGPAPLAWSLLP
Adenosine receptor A2a (Homo sapiens), sequence (P29274 whole entry): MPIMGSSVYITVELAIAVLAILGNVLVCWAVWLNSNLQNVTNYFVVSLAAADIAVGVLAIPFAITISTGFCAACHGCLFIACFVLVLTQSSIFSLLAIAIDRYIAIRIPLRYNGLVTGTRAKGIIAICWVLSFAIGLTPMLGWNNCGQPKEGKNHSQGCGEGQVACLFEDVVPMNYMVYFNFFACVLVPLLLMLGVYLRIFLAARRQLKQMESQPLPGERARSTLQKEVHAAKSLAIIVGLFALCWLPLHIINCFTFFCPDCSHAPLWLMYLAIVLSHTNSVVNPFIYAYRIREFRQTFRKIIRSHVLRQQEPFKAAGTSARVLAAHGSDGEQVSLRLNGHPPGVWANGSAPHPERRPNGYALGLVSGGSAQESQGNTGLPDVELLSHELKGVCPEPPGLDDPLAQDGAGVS
Prostaglandin G/H synthase 1 (Homo sapiens), sequence (P23219 whole entry): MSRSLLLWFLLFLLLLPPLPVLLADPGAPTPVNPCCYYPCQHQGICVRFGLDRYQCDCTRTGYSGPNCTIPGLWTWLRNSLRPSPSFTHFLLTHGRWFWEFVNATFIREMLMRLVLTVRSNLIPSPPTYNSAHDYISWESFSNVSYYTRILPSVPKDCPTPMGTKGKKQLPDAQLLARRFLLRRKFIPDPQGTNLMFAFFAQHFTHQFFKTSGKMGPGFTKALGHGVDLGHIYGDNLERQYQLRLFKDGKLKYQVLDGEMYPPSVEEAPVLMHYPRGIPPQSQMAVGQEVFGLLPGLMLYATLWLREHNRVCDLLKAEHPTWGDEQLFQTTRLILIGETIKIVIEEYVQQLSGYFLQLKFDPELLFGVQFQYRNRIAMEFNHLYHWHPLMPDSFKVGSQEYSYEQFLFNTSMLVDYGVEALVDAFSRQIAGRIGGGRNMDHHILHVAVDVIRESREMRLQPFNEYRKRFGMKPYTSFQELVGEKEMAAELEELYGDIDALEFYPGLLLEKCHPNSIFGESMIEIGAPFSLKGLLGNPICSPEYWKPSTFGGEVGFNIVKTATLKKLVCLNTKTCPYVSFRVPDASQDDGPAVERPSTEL

| Structure (SMILES) | inhibition [1] | inhibition [3] | inhibition [5] | inhibition [6] | inhibition [7] | inhibition [12] | inhibition [13] | inhibition [14] | inhibition [16] | inhibition [18] | inhibition [20] | inhibition [21] | inhibition [23] | inhibition [24] | further results |
| --- | --- | --- | --- | --- | --- | --- | --- | --- | --- | --- | --- | --- | --- | --- | --- |
| O=C1NCCCC1N1Cc2cc(C3CCN(C(=O)CCCCCN4CCC(c5ccc(Oc6nn7cnnc7c7c6CCCC7)cc5)CC4)CC3)ccc2C1=O (stereo not given) | -7.97% | 13.8% | 23% | 20% | 21% | 32% | 91.5% | 62% | 76% | 21% | 23.8% | 10.6% | 6% | 9.58% | pKi ([2]; read-out: Ki): 6.28; Ki ([2]; read-out: pKi (converted)): 490 nM; inhibition [4]: 14.1%; inhibition [8]: 10.5%; inhibition [9]: 16.6%; inhibition [10]: 10.7%; inhibition [11]: 14.4%; inhibition [15]: -6%; inhibition [17]: 13.3%; inhibition [19]: 10.6%; inhibition [22]: 10.8% |
| O=C1CCC(N2Cc3cc(C4CCN(C(=O)CCCCCN5CCC(c6ccc(Oc7nn8cnnc8c8c7CCCC8)cc6)CC5)CC4)ccc3C2=O)C(=O)N1 (stereo not given) | 19.9% | 16.3% | 10% | 13% | 16% | 28% | 100% | 79% | 90% | 32% | 22.9% | 15.4% | 6% | 45.8% | DCmax [25]: 94%; inhibition [26]: 12.3%; pKi ([27]; read-out: Ki): 6.25; Ki ([27]; read-out: pKi (converted)): 562 nM; inhibition [28]: 19.4%; IC50 [29]: 5.9 nM (active) |
